For eight molecules, Kd results are on record in BindingDB's records for doi:10.1038/sj.bjp.0706048 (University of Nottingham, 2005).

Structures can show the parent of a compound that is named as a salt.

Assay [1] deals with Beta-3 adrenergic receptor (Homo sapiens, UniProt P13945). Description: 3H-CGP 12177 Whole Cell Binding Assay.
Source text: (§1) The whole cell-binding studies were undertaken in CHO cell lines stably expressing each beta-adrenoceptor subtype.
Assay [2] has as its target Beta-1 adrenergic receptor (Homo sapiens, UniProt P08588). Description: 3H-CGP 12177 Whole Cell Binding Assay. The conditions noted are these: pH 7.4; 37 °C.
Source text: as §1

Beta-1 adrenergic receptor, sequence (P08588 whole entry): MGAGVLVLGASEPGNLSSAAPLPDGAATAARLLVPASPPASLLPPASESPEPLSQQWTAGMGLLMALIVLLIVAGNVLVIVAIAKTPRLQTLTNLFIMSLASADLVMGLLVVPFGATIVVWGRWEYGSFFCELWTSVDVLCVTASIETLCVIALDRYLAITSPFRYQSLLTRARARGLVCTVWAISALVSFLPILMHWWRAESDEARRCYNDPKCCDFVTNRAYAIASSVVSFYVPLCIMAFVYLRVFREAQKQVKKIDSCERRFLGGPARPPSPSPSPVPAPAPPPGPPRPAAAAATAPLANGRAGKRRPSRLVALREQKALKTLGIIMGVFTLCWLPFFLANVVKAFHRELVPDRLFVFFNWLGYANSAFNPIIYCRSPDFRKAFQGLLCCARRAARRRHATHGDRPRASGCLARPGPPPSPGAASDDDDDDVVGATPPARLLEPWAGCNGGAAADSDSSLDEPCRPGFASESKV
Beta-3 adrenergic receptor, sequence (P13945 whole entry): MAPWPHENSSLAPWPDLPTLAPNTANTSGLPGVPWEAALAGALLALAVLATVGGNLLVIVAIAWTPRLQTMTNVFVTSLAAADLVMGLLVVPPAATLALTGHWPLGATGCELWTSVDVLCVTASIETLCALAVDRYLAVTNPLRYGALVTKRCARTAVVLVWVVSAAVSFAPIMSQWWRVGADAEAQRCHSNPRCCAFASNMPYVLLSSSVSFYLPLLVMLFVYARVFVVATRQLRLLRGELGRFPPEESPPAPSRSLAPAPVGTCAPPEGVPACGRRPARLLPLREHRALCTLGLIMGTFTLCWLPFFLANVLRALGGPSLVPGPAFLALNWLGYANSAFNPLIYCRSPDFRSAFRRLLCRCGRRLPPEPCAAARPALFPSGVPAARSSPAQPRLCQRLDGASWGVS

The Kd is the equilibrium constant for the complex coming apart. `CC(C)NC[C@H](O)COc1ccc(CCOCC2CC2)cc1` [[(2S)-3-{4-[2-(cyclopropylmethoxy)ethyl]phenoxy}-2-hydroxypropyl](propan-2-yl)amine]: in assay [1], the affinity, expressed as Kd, was 1070 nM.

Regarding `CC(C)(C)NCC(O)COc1cccc2[nH]c(=O)[nH]c12` (stereo unspecified) [4-[3-(tert-butylamino)-2-hydroxypropoxy]-2,3-dihydro-1H-1,3-benzodiazol-2-one hydrochloride], the Kd in assay [1] was 102 nM. This Kd is about 10-fold lower than that of the molecule before.

Take `OCc1cc(C(O)CNCCCCCCOCCCCc2ccccc2)ccc1O` (stereo unspecified) [salmeterol xinafoate]: the Kd in assay [1] was 1860 nM. This Kd is about 18-fold higher than that of the molecule before.

Regarding `CC(C)(C)NCC(O)COc1cccc2c1C[C@H](O)[C@H](O)C2` (stereo partly specified) [Corgard], the Kd in assay [2] worked out at 59 nM; in assay [1], 661 nM.

Consider `Cc1ccc(Cl)c(OCC(O)CNC(C)(C)C)c1` (stereo unspecified) [tert-butyl[3-(2-chloro-5-methylphenoxy)-2-hydroxypropyl]amine], for which the Kd in assay [2] is 3.1 nM; in assay [1], 91 nM.

In turn, `CC(C)(C)NC[C@H](O)COc1nsnc1N1CCOCC1` (racemic) [tert-butyl(2-hydroxy-3-{[4-(morpholin-4-yl)-1,2,5-thiadiazol-3-yl]oxy}propyl)amine] yielded a Kd in assay [1] of 158 nM. In other words, the sub-micromolar range.

As to `O=C(O)COc1ccc(OCCNC[C@@H](O)COc2ccccc2)cc1` [2-[4-(2-{[(2R)-2-hydroxy-3-phenoxypropyl]amino}ethoxy)phenoxy]acetic acid], in assay [1], the Kd turned out to be 234 nM.

Regarding `CC(C)NCC(O)c1ccc2ccccc2c1` (stereo unspecified) [1-(naphthalen-2-yl)-2-(propan-2-ylamino)ethan-1-ol], the Kd in assay [2] is 363 nM; in assay [1], 1290 nM.
